Experiment [1] concerns A431 human tumour xenografts. Description: A431 human vulval epidermoid carcinoma xenograft model. It counts as in vivo, female athymic mice (Swiss nu/nu). To be noted: 20 days after randomisation; ZD6474 25 mg/kg/day p.o. once daily, bevacizumab 0.5 mg/kg i.p. twice a week; nude mice. The protocol:
Experiments were conducted on female athymic mice (Swiss nu/nu genotype, ≧6 weeks of age). A431 human tumour xenografts were established in the experimental mice by injecting 1×10^7 cells per mouse, mixed in a ratio of 1:1 with Matrigel, subcutaneously in the dorsal flank in a volume of 100 μl. Tumour volumes were assessed at least twice weekly by bilateral Vernier calliper measurements. Mice were randomised into treatment groups when the tumour volume reached 0.2-0.4 cm^3 (day 0, this was after 7 days in Example 1 below).
Tumour growth inhibition from the start of treatment was assessed by comparison of the differences in tumour volume (median and geometric mean) between control and treated groups.
Control animals (Group I) received drug vehicles alone.

The test system of a further experiment is VEGF RTK. To be noted: cited from earlier work.
Another experiment concerns tumour models. Particulars: once-daily oral administration; range of models; cited from earlier work.

For “Bevacizumab: recombinant humanised monoclonal antibody to the vascular endothelial growth factor ligand VEGF-A”, the “A431 tumor volume, Geometric mean” value in experiment [1] worked out at 0.553 cm^3.

With `COc1cc2c(Nc3ccc(Br)cc3F)ncnc2cc1OCC1CCN(C)CC1` [ZD6474, 4-(4-bromo-2-fluoroanilino)-6-methoxy-7-(1-methylpiperidin-4-ylmethoxy)quinazoline], the “A431 tumor volume, Geometric mean” value in experiment [1] was 0.149 cm^3. Besides, the “Inhibition of VEGF RTK” value with VEGF RTK was “potent inhibitor”. The Anti-tumour activity result in the experiment with tumour models is “broad-spectrum anti-tumour activity”.
